Results as given in patent publication US9540314B2, “N-cycloalkyl-N-[(cycloalkenylphenyl)methylene]-(thio) carboxamide derivatives” (BAYER INTELLECTUAL PROPERTY GMBH, priority 2012, dated 2017).
Marks after values point to notes of the source that are not given here.

Key:
[1] = log P by HPLC on a reversed-phase column (C 18), EEC Directive 79/831 Annex V.A8; format: physicochemical; conditions: HPLC C 18, 40° C., 0.1% aqueous formic acid and acetonitrile; for logP: Table 1, several values = mixture of 2 or more isomers; for chromatographic logP: reversed-phase HPLC column (C 18), Table 2, compounds of formula (IIa)
Method: In table 1, the log P values were determined in accordance with EEC Directive 79/831 Annex V.A8 by HPLC (High Performance Liquid Chromatography) on a reversed-phase column (C 18), using the method described below:
Temperature: 40° C.; Mobile phases: 0.1% aqueous formic acid and acetonitrile; linear gradient from 10% acetonitrile to 90% acetonitrile.
Calibration was carried out using unbranched alkan-2-ones (comprising 3 to 16 carbon atoms) with known log P values (determination of the log P values by the retention times using linear interpolation between two successive alkanones). lambda-max-values were determined using UV-spectra from 200 nm to 400 nm and the peak values of the chromatographic signals.

Puccinia recondita = assay: In vivo preventive test on Puccinia recondita (brown rust on wheat); conditions: 500 ppm of active ingredient; wheat plants, preventive spray; grading 12 days after contamination
Method: (§1) The active ingredients tested are prepared by homogenization in a mixture of acetone/tween/DMSO, and then diluted with water to obtain the desired active material concentration.
Wheat plants (“Scipion” variety), sown in starter cups on a 50/50 peat soil pozzolana substrate and grown at 22° C., are treated at the 1 leaf stage (10 cm height) by spraying with the active ingredient prepared as described above. Plants, used as controls, are treated with the mixture of acetone/tween/DMSO/water not containing the active material.
(§2) After 24 hours, the plants are contaminated by spraying the leaves with an aqueous suspension of Puccinia recondita spores (100 000 spores per mL). The spores are collected from an infected plant and are suspended in water containing 2.5 mL/L of Tween 80 at 10%. The contaminated wheat plants are incubated for 24 hours at 20° C. and at 100% relative humidity, and then for 10 days at 20° C. and at 70-80% relative humidity.
Grading (% of efficacy) is carried out 12 days after the contamination, in comparison with the control plants.
Under these conditions, good (at least 70%) to total protection is observed at a dose of 500 ppm of active ingredient with the following compounds from table I: […]

Uromyces appendiculatus = assay: In vivo preventive test on Uromyces appendiculatus (bean rust); conditions: bean plants; for protection: Table K2 comparison with saturated analogues, 500 ppm, preventive, 11 days after contamination
Method: as §1
as §2, with “of Uromyces appendiculatus” for “of Puccinia recondita”, “spores (150” for “spores (100”, “from” for “from an”, “infected plants” for “infected plant”, “contaminated bean” for “contaminated wheat”
Grading (% of efficacy) is carried out 11 days after the contamination, in comparison with the control plants.

Pyrenophora teres = assay: In vivo preventive test on Pyrenophora teres (barley); conditions: Table H2; 100 ppm, barley plants, preventive, grading 14 days after contamination
Method: as §1
Barley plants (“Plaisant” variety), sown in starter cups on a 50/50 peat soil pozzolana substrate and grown at 22° C., are treated at the 1 leaf stage (10 cm height) by spraying with the active ingredient prepared as described above. Plants, used as controls, are treated with the mixture of acetone/tween/DMSO/water not containing the active material.
After 24 hours, the plants are contaminated by spraying the leaves with an aqueous suspension of Pyrenophora teres spores (12 000 spores per mL). The spores are collected from a 12-day-old culture.
The contaminated barley plants are incubated for 48 hours at 20° C. and at 100% relative humidity, and then for 12 days at 20° C. at 70-80% relative humidity.
Grading (% of efficacy) is carried out 14 days after the contamination, in comparison with the control plants.
Under these conditions, good (at least 70%) to total protection is observed at a dose of 500 ppm of active ingredient with the following compounds from table H1: […]

[2] = dose 100 ppm, comparison with saturated analogues (table K2)
[3] = dose 500 ppm, comparison with saturated analogues (table K2)
[4] = 500 ppm of active ingredient, preventive spray, grading 11 days after contamination (table K1)

For `CC1CC=C(c2ccc(F)cc2CN(C(=O)c2c(C(F)F)nn(C)c2Cl)C2CC2)CC1` (racemic) [I.47], the logP [1] was 5.14 and the Efficacy (Puccinia recondita) was 81%.

`CC1CC=C(c2ccc(F)cc2CN(C(=S)c2c(C(F)F)nn(C)c2Cl)C2CC2)CC1` (racemic) [I.48] showed a logP [1] of 5.77.

For `Cn1nc(C(F)F)c(C(=O)N(Cc2ccccc2C2CCCC2)C2CC2)c1F` [CMP4, N-(2-cyclopentylbenzyl)-N-cyclopropyl-3-(difluoromethyl)-5-fluoro-1-methyl-1H-pyrazole-4-carboxamide, reference compound], the protection (Uromyces appendiculatus) was “poor (less than 20%) protection or plant damages” and the Efficacy (Uromyces appendiculatus; [2]) was 100%.

For `Cn1cc(C(=O)N(Cc2ccccc2C2CCCCC2)C2CC2)c(C(F)F)n1` [CMP5, N-(2-cyclohexylbenzyl)-N-cyclopropyl-3-(difluoromethyl)-1-methyl-1H-pyrazole-4-carboxamide, reference compound], the protection (Uromyces appendiculatus) was “poor (less than 20%) protection or plant damages” and the Efficacy (Uromyces appendiculatus; [2]) was 0%.

In the case of `Cn1nc(C(F)F)c(C(=O)N(Cc2ccccc2C2CCCCC2)C2CC2)c1F` [CMP6, N-(2-cyclohexylbenzyl)-N-cyclopropyl-3-(difluoromethyl)-5-fluoro-1-methyl-1H-pyrazole-4-carboxamide, reference compound], the protection (Uromyces appendiculatus) is reported as “poor (less than 20%) protection or plant damages” and the Efficacy (Uromyces appendiculatus; [2]) is reported as 38^(d) %.

For `Cn1nc(C(F)F)c(C(=O)N(Cc2ccccc2C2CCCCC2)C2CC2)c1Cl` [CMP7, 5-chloro-N-(2-cyclohexylbenzyl)-N-cyclopropyl-3-(difluoromethyl)-1-methyl-1H-pyrazole-4-carboxamide, reference compound], the protection (Uromyces appendiculatus) was “poor (less than 20%) protection or plant damages”, the Efficacy (Uromyces appendiculatus; [2]) was 0% and the Efficacy (Uromyces appendiculatus; [3]) was 13%.

Work on `Cn1cc(C(=O)N(Cc2ccccc2C2=CCCC2)C2CC2)c(C(F)F)c1` [I.5] yielded a logP [1] of 4.13.

`O=C(c1ccsc1I)N(Cc1ccccc1C1=CCCC1)C1CC1` [I.6] showed a logP [1] of 4.85 and an Efficacy (Uromyces appendiculatus; [4]) of 88%.

Molecule `Cn1nc(C(F)F)c(C(=O)N(Cc2cc(C3=CCCC3)ccc2Cl)C2CC2)c1Cl` [I.8] has a logP [1] of 4.82 and an Efficacy (Pyrenophora teres) of 71%.

For `Cn1nc(C(F)F)c(C(=O)N(Cc2cc(C3=CCCC3)ccc2Cl)C2CC2)c1F` [I.9], the logP [1] was 4.59 and the Efficacy (Pyrenophora teres) was 79%.

Molecule `Cn1cc(C(=O)N(Cc2cc(C3=CCCC3)ccc2Cl)C2CC2)c(C(F)F)n1` [I.10] has a logP [1] of 4.14.

In the case of `Cn1cc(C(=O)N(Cc2cc(C3=CCCC3)ccc2Cl)C2CC2)c(C(F)F)c1` [I.11], the logP [1] is reported as 4.63.

Molecule `O=C(c1ccsc1I)N(Cc1cc(C2=CCCC2)ccc1Cl)C1CC1` [I.12] has a logP [1] of 5.51.

In the case of `Cn1nc(C(F)F)c(C(=O)N(Cc2cc(Cl)ccc2C2=CCCC2)C2CC2)c1F` [I.20], the logP [1] is reported as 4.54 and the Efficacy (Pyrenophora teres) is reported as 97%.

With `O=C(c1ccsc1I)N(Cc1cc(Cl)ccc1C1=CCCC1)C1CC1` [I.21] the logP [1] was 5.36.

`Cn1cc(C(=O)N(Cc2cc(Cl)ccc2C2=CCCC2)C2CC2)c(C(F)F)n1` [I.22] showed a logP [1] of 4.06 and an Efficacy (Pyrenophora teres) of 71%.

`Cn1nc(C(F)F)c(C(=O)N(Cc2cc(Cl)ccc2C2=CCCC2)C2CC2)c1Cl` [I.23] gave a logP [1] of 4.74.

Molecule `Cn1cc(C(=O)N(Cc2cc(Cl)ccc2C2=CCCC2)C2CC2)c(C(F)F)c1` [I.24] has a logP [1] of 4.58.

Work on `Cn1nc(C(F)F)c(C(=O)N(Cc2ccccc2C2=CCCCC2)C2CC2)c1Cl` [I.29] yielded a logP [1] of 4.66, an Efficacy (Uromyces appendiculatus; [4]) of 84% and an Efficacy (Uromyces appendiculatus; [2]) of 35%. For the same molecule, the Efficacy (Uromyces appendiculatus; [3]) was 84% and the Efficacy (Puccinia recondita) was 81%.

For `Cn1nc(C(F)F)c(C(=O)N(Cc2cc(C3=CCCCC3)ccc2Cl)C2CC2)c1F` [I.33], the logP [1] was 4.92 and the Efficacy (Pyrenophora teres) was 86%.

With `Cn1nc(C(F)F)c(C(=O)N(Cc2cc(C3=CCCCC3)ccc2Cl)C2CC2)c1Cl` [I.34] the logP [1] was 5.14 and the Efficacy (Pyrenophora teres) was 79%.

`O=C(c1ccsc1I)N(Cc1cc(C2=CCCCC2)ccc1Cl)C1CC1` [I.35] gave a logP [1] of 5.87.

`Cn1cc(C(=O)N(Cc2cc(C3=CCCCC3)ccc2Cl)C2CC2)c(C(F)F)c1` [I.36] gave a logP [1] of 4.93.

In the case of `Cn1cc(C(=O)N(Cc2cc(C3=CCCCC3)ccc2Cl)C2CC2)c(C(F)F)n1` [I.37], the logP [1] is reported as 4.46.

For `Cn1nc(C(F)F)c(C(=O)N(Cc2cc(Cl)ccc2C2=CCCCC2)C2CC2)c1Cl` [I.38], the logP [1] was 5.11.

In the case of `Cn1cc(C(=O)N(Cc2cc(Cl)ccc2C2=CCCCC2)C2CC2)c(C(F)F)n1` [I.39], the logP [1] is reported as 4.44.

Molecule `Cn1cc(C(=O)N(Cc2cc(Cl)ccc2C2=CCCCC2)C2CC2)c(C(F)F)c1` [I.40] has a logP [1] of 4.93.

`Cn1nc(C(F)F)c(C(=O)N(Cc2cc(Cl)ccc2C2=CCCCC2)C2CC2)c1F` [I.41] showed a logP [1] of 4.88.

With `O=C(c1ccsc1I)N(Cc1cc(Cl)ccc1C1=CCCCC1)C1CC1` [I.42] the logP [1] was 5.78.

With `O=C(c1ccsc1I)N(Cc1ccccc1C1=CCCCCC1)C1CC1` [I.52] the logP [1] was 5.78 and the Efficacy (Uromyces appendiculatus; [4]) was 75%.

Molecule `Cn1nc(C(F)F)c(C(=O)N(Cc2cc(Cl)ccc2C2=CCCCCC2)C2CC2)c1F` [I.54] has a logP [1] of 5.31.

With `Cn1cc(C(=O)N(Cc2cc(Cl)ccc2C2=CCCCCC2)C2CC2)c(C(F)F)c1` [I.55] the logP [1] was 5.34.

With `Cn1nc(C(F)F)c(C(=O)N(Cc2cc(Cl)ccc2C2=CCCCCC2)C2CC2)c1Cl` [I.56] the logP [1] was 5.54.

`Cn1cc(C(=O)N(Cc2cc(Cl)ccc2C2=CCCCCC2)C2CC2)c(C(F)F)n1` [I.57] showed a logP [1] of 4.87 and an Efficacy (Pyrenophora teres) of 79%.

`O=C(c1ccsc1I)N(Cc1cc(Cl)ccc1C1=CCCCCC1)C1CC1` [I.58] gave a logP [1] of 6.27.

In the case of `CC(NC1CC1)c1ccccc1C1=CCCC1` (stereo not shown) [IIa.1, N-{1-[2-(cyclopent-1-en-1-yl)phenyl]ethyl}cyclopropanamine], the chromatographic logP [1] is reported as 1.72.

Molecule `C1=C(c2ccccc2CNC2CC2)CCC1` [IIa.2, N-[2-(cyclopent-1-en-1-yl)benzyl]cyclopropanamine] has a chromatographic logP [1] of 1.19.

Molecule `Clc1ccc(C2=CCCC2)c(CNC2CC2)c1` [IIa.3, N-[5-chloro-2-(cyclopent-1-en-1-yl)benzyl]cyclopropanamine] has a chromatographic logP [1] of 1.28.

In the case of `CC(NC1CC1)c1cc(F)ccc1C1=CCCC1` (stereo not shown) [IIa.4, N-{1-[2-(cyclopent-1-en-1-yl)-5-fluorophenyl]ethyl}cyclopropanamine], the chromatographic logP [1] is reported as 1.56.

`Clc1ccc(C2=CCCC2)cc1CNC1CC1` [IIa.5, N-[2-chloro-5-(cyclopent-1-en-1-yl)benzyl]cyclopropanamine] showed a chromatographic logP [1] of 1.39.

Molecule `C1=C(c2ccccc2CNC2CC2)CCCC1` [IIa.6, N-[2-(cyclohex-1-en-1-yl)benzyl]cyclopropanamine] has a chromatographic logP [1] of 1.37.

In the case of `Clc1ccc(C2=CCCCC2)c(CNC2CC2)c1` [IIa.7, N-[5-chloro-2-(cyclohex-1-en-1-yl)benzyl]cyclopropanamine], the chromatographic logP [1] is reported as 1.45.

In the case of `Clc1ccc(C2=CCCCC2)cc1CNC1CC1` [IIa.8, N-[2-chloro-5-(cyclohex-1-en-1-yl)benzyl]cyclopropanamine], the chromatographic logP [1] is reported as 1.45.

With `C1=C(c2ccccc2CNC2CC2)CCCCC1` [IIa.9, N-[2-(cyclohept-1-en-1-yl)benzyl]cyclopropanamine] the chromatographic logP [1] was 1.45.

`Clc1ccc(C2=CCCCCC2)c(CNC2CC2)c1` [IIa.10, N-[5-chloro-2-(cyclohept-1-en-1-yl)benzyl]cyclopropanamine] gave a chromatographic logP [1] of 1.71.
